Experimental data taken from ChEMBL document CHEMBL4393686, “InCl3 mediated heteroarylation of indoles and their derivatization via CH activation strategy: Discovery of 2-(1H-indol-3-yl)-quinoxaline derivatives as a new class of PDE4B selective inhibitors for arthritis and/or multiple sclerosis” (Eur J Med Chem, 2019).
Activity calls are given as the source filed them. No cut-off for these calls is given here.

What was measured:
[1] = AUClast in BALB/c mouse at 10 mg/kg, iv measured for 24 hrs post dose by LC-MS/MS analysis; type: ADME, organism-based; design: dose 10 mg/kg, route intravenous, time 0 - last; conditions: in vivo
[2] = biological target: 3',5'-cyclic-AMP phosphodiesterase 4D (Homo sapiens, UniProt Q08499); test: Inhibition of PDE4D2 (unknown origin) using cAMP as substrate preincubated with enzyme for 15 mins followed by substrate addition and incubated for 1 hr by PDELight HTS cAMP phosphodiesterase Kit based luminometry
Homo sapiens = species: Homo sapiens; test: Selectivity for recombinant His-tagged human PDE4B over PDE4C (unknown origin)
[3] = biological target: Dual specificity calcium/calmodulin-dependent 3',5'-cyclic nucleotide phosphodiesterase 1C (Homo sapiens) (UniProt Q14123); test: Inhibition of recombinant N-terminal GST tagged human PDE1C (2 to 634 aa) expressed in Sf9 cells at 10 uM using FAM-cAMP as substrate incubated for 60 mins by fluorescence plate reader analysis
[4] = biological target: 3',5'-cyclic-AMP phosphodiesterase 4A (Homo sapiens) (UniProt P27815); test: Inhibition of recombinant N-terminal GST tagged human PDE4A4B (2-end aa) expressed in Sf9 cells using FAM-cAMP as substrate at 10 uM incubated for 60 mins by fluorescence plate reader analysis
[5] = biological target: cGMP-specific 3',5'-cyclic phosphodiesterase (Homo sapiens) (UniProt O76074); test: Inhibition of recombinant N-terminal GST-tagged full length human PDE5A1 expressed in Sf9 cells using FAM-cGMP as substrate at 10 uM incubated for 60 mins by fluorescence plate reader analysis
[6] = biological target: Cone cGMP-specific 3',5'-cyclic phosphodiesterase subunit alpha' (Homo sapiens) (UniProt P51160); test: Inhibition of recombinant N-terminal GST-tagged full length human PDE6C expressed in Sf9 cells using FAM-cGMP as substrate at 10 uM incubated for 60 mins by fluorescence plate reader analysis
[7] = biological target: 3',5'-cyclic-AMP phosphodiesterase 7B (Homo sapiens) (UniProt Q9NP56); test: Inhibition of recombinant N-terminal GST tagged and C-terminal His-tagged human PDE7B (109-ens aa) expressed in Sf9 cells using FAM-cAMP as substrate at 10 uM incubated for 60 mins by fluorescence plate reader analysis
[8] = biological target: cAMP and cAMP-inhibited cGMP 3',5'-cyclic phosphodiesterase 10A (Homo sapiens) (UniProt Q9Y233); test: Inhibition of recombinant -N-terminal GST-tagged human PDE10A1 (aa 2-789) expressed in Sf9 cells using FAM-cAMP as substrate at 10 uM incubated for 60 mins by fluorescence plate reader analysis
[9] = Metabolic stability in rat liver microsomes assessed as compound remaining at 5 uM incubated for 30 mins in presence of air measured after 60 mins by LC-MS/MS analysis; type: ADME, Microsome; conditions: read-out: Stability
[10] = Intrinsic clearance in rat liver microsomes at 5 uM by LC-MS/MS analysis; type: ADME, Microsome; conditions: read-out: CLH
[11] = Initial plasma concentration in BALB/c mouse at 10 mg/kg, iv measured for 24 hrs post dose by LC-MS/MS analysis; type: ADME, organism-based
[12] = AUC (0 to extrap) in BALB/c mouse at 10 mg/kg, iv measured for 24 hrs post dose by LC-MS/MS analysis; type: ADME, organism-based; conditions: in vivo
[13] = Volume of distribution at steady state in BALB/c mouse at 10 mg/kg, iv measured for 24 hrs post dose by LC-MS/MS analysis; type: ADME, organism-based; conditions: in vivo, read-out: Vdss
[14] = Clearance in BALB/c mouse at 10 mg/kg, iv measured for 24 hrs post dose by LC-MS/MS analysis; type: ADME, organism-based; conditions: in vivo
Danio rerio [15] = test: Anti-sclerotic activity in MOG/CFA-induced zebra fish EAE model assessed as reduction in lesion score at 3 to 30 mg/kg, ip measured for 7 days; type: functional, organism-based
Rattus norvegicus [16] = test: Antiarthritic activity in complete Freund's adjuvant-induced Wistar rat arthritis model assessed as reduction in paw volume at 30 mg/kg, ip administered from 11th day to 20th day by vernier caliper analysis; type: functional, organism-based
Rattus norvegicus [17] = test: Analgesic activity in complete Freund's adjuvant-induced Wistar rat arthritis model assessed as increase in reaction time at 30 mg/kg, ip administered from 11th day 20th day with last dose administered 30 mins prior to test by hot-plate test; type: functional, organism-based
Rattus norvegicus [18] = test: Antiarthritic activity in complete Freund's adjuvant-induced Wistar rat arthritis model assessed as reduction in pannus formation at 30 mg/kg, ip administered from 11th day to 20th day by H&E staining based microscopic analysis; type: functional, organism-based
[19] = Cardiotoxicity in zebrafish embryos assessed as artio-ventricular ratio at 1 to 100 uM; type: toxicity, Danio rerio
Rattus norvegicus [20] = test: Antiinflammatory activity in complete Freund's adjuvant-induced Wistar rat arthritis model assessed as reduction in IL6 expression in serum at 30 mg/kg, ip administered from 11th day to 20th day by ELISA; type: functional, organism-based
Rattus norvegicus [21] = test: Antiinflammatory activity in complete Freund's adjuvant-induced Wistar rat arthritis model assessed as reduction in iNOS mRNA expression at 30 mg/kg, ip administered from 11th day to 20th day by qPCR analysis; type: functional, organism-based
[22] = Hepatotoxicity in zebrafish embryos assessed as liver size at 1 to 100 uM incubated for 7 dpf; type: toxicity, Danio rerio; conditions: in vivo
[23] = Hepatotoxicity in zebrafish embryos assessed as yolk sac retention at 1 to 100 uM incubated for 7 dpf; type: toxicity, Danio rerio; conditions: in vivo
[24] = Toxicity in zebrafish embryo; design: species or system Danio rerio; conditions: in vivo
[25] = Toxicity in zebrafish embryo assessed as change in body shape at 1 to 100 uM; design: species or system Danio rerio; conditions: in vivo
[26] = Toxicity in zebrafish embryo assessed as effect in notochord formation at 1 to 100 uM; design: species or system Danio rerio; conditions: in vivo
[27] = Toxicity in zebrafish embryo assessed as effect in tail formation at 1 to 100 uM; design: species or system Danio rerio; conditions: in vivo
[28] = Toxicity in zebrafish embryo assessed as effect in fin formation at 1 to 100 uM; design: species or system Danio rerio; conditions: in vivo
[29] = Toxicity in zebrafish embryo assessed as effect in brain formation at 1 to 100 uM; type: tissue-based, Danio rerio; conditions: in vivo
[30] = Toxicity in zebrafish embryo assessed as effect in upper jaw formation at 1 to 100 uM; design: species or system Danio rerio; conditions: in vivo
[31] = Toxicity in zebrafish embryo assessed as effect in intestine formation at 1 to 100 uM; type: tissue-based, Danio rerio; conditions: in vivo
[32] = Toxicity in zebrafish embryo assessed as effect in lower jaw formation at 1 to 100 uM; design: species or system Danio rerio; conditions: in vivo
[33] = Toxicity in zebrafish embryo assessed as effect in liver formation at 1 to 100 uM; design: species or system Danio rerio; conditions: in vivo
Danio rerio [34] = test: Anti-sclerotic activity in MOG/CFA-induced zebra fish EAE model assessed as prevention of disease progression at 3 to 30 mg/kg, ip measured for 7 days; type: functional, organism-based
Rattus norvegicus [35] = test: Antiinflammatory activity in complete Freund's adjuvant-induced Wistar rat arthritis model assessed as reduction in TNFalpha mRNA expression at 30 mg/kg, ip administered from 11th day to 20th day by qPCR analysis; type: functional, organism-based

Chain of cAMP and cAMP-inhibited cGMP 3',5'-cyclic phosphodiesterase 10A (Homo sapiens) (Q9Y233 whole entry, the tested form may be a part): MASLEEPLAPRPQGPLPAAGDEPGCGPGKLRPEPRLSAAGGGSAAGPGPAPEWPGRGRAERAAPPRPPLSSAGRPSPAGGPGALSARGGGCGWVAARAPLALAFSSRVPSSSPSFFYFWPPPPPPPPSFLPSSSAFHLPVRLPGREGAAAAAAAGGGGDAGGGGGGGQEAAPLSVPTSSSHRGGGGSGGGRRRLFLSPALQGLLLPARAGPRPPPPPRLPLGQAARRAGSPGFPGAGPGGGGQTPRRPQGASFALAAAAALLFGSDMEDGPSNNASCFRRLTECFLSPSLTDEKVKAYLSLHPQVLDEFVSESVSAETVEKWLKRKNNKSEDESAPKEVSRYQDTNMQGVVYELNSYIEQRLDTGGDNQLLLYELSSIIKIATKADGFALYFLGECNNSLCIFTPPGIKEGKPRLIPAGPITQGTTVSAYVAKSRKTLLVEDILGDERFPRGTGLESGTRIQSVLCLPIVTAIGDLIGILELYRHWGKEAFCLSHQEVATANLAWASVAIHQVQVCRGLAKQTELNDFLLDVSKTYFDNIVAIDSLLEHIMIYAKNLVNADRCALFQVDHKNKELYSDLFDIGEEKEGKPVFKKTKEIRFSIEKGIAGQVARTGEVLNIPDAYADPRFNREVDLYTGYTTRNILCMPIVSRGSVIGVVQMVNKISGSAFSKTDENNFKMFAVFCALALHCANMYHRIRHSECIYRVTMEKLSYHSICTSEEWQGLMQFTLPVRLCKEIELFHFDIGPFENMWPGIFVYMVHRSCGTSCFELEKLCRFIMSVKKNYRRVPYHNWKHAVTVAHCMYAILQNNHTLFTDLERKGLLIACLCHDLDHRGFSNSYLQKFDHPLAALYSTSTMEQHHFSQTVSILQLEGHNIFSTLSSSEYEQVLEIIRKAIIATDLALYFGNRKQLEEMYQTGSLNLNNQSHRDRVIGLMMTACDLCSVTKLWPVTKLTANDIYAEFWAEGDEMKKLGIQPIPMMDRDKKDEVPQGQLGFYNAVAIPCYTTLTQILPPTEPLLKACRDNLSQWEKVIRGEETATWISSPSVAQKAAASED
Chain of Cone cGMP-specific 3',5'-cyclic phosphodiesterase subunit alpha' (Homo sapiens) (P51160 whole entry): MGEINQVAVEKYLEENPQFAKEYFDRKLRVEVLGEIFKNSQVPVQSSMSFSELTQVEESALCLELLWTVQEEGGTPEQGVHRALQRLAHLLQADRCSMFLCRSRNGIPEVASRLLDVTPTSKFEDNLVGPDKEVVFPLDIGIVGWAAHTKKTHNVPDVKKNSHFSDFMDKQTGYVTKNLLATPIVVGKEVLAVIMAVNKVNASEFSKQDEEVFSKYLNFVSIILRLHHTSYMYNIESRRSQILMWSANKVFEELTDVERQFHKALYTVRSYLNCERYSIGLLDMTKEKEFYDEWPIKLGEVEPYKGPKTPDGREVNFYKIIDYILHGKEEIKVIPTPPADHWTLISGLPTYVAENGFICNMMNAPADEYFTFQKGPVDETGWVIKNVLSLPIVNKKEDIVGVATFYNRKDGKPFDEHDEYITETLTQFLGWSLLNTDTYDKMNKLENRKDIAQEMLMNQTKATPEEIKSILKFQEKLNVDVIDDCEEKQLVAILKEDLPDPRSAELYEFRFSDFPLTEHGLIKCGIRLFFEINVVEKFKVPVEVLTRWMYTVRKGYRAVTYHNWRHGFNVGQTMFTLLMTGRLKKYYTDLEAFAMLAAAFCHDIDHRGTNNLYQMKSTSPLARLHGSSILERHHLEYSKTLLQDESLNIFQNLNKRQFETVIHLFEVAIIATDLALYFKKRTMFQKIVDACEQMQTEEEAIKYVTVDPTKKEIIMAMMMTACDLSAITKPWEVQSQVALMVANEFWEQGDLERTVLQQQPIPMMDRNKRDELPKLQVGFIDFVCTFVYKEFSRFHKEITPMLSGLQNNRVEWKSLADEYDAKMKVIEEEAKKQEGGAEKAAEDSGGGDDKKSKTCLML
Chain of 3',5'-cyclic-AMP phosphodiesterase 7B (Homo sapiens) (Q9NP56 whole entry, the tested form may be a part): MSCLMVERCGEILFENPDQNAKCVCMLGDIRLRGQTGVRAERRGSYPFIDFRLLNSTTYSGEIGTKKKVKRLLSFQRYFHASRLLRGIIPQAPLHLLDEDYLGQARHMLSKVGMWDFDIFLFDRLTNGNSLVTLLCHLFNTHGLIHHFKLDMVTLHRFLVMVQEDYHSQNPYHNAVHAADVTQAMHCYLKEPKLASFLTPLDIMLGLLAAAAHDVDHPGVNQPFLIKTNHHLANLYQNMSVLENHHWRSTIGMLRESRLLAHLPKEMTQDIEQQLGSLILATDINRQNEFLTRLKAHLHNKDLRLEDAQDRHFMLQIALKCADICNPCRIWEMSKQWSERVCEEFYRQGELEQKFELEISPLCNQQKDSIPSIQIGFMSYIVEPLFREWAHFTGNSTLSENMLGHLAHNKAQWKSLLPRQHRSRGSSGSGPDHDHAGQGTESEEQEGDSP
Chain of 3',5'-cyclic-AMP phosphodiesterase 4D (Q08499 whole entry): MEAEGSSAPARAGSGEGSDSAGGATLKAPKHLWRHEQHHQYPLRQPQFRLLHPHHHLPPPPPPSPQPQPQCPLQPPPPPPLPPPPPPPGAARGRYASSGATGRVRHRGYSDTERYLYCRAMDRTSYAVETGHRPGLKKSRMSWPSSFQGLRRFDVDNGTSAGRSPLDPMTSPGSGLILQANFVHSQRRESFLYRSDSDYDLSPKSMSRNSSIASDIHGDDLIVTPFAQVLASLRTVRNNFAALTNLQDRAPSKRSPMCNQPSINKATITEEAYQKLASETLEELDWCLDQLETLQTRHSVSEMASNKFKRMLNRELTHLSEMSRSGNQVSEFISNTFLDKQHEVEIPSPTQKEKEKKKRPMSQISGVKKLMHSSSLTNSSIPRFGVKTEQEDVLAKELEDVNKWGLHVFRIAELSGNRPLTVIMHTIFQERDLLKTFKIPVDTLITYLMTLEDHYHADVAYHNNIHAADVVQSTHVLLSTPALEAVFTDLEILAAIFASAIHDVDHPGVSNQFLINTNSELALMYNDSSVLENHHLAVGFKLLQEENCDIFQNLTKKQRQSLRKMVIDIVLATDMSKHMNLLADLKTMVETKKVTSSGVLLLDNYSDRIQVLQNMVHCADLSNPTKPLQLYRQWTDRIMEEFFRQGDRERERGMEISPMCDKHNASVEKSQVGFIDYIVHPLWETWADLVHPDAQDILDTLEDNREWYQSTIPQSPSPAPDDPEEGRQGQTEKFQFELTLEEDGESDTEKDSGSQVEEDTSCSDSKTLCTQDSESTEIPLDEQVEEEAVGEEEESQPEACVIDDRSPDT
Chain of 3',5'-cyclic-AMP phosphodiesterase 4A (Homo sapiens) (P27815 whole entry): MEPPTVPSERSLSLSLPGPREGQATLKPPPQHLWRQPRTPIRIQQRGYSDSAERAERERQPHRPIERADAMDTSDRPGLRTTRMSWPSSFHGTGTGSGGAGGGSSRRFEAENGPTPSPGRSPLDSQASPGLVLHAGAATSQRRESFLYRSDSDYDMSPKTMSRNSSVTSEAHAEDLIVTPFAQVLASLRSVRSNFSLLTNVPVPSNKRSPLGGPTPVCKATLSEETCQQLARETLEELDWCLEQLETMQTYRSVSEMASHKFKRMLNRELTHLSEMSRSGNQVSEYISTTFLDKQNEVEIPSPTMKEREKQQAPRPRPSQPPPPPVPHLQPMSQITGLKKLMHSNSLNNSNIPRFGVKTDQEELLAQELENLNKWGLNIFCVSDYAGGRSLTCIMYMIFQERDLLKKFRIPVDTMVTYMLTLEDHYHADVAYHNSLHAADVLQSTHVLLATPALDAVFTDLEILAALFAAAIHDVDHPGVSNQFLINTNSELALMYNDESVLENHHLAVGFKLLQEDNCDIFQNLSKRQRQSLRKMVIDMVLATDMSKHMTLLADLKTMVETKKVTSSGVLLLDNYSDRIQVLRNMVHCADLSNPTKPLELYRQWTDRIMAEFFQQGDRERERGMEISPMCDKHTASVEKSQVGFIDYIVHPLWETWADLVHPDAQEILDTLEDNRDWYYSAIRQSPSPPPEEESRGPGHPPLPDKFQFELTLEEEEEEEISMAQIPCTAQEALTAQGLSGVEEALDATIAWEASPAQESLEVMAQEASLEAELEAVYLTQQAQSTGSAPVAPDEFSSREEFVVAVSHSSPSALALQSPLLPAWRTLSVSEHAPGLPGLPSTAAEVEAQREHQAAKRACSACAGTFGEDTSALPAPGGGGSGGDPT
Chain of Dual specificity calcium/calmodulin-dependent 3',5'-cyclic nucleotide phosphodiesterase 1C (Homo sapiens) (Q14123 whole entry, the tested form may be a part): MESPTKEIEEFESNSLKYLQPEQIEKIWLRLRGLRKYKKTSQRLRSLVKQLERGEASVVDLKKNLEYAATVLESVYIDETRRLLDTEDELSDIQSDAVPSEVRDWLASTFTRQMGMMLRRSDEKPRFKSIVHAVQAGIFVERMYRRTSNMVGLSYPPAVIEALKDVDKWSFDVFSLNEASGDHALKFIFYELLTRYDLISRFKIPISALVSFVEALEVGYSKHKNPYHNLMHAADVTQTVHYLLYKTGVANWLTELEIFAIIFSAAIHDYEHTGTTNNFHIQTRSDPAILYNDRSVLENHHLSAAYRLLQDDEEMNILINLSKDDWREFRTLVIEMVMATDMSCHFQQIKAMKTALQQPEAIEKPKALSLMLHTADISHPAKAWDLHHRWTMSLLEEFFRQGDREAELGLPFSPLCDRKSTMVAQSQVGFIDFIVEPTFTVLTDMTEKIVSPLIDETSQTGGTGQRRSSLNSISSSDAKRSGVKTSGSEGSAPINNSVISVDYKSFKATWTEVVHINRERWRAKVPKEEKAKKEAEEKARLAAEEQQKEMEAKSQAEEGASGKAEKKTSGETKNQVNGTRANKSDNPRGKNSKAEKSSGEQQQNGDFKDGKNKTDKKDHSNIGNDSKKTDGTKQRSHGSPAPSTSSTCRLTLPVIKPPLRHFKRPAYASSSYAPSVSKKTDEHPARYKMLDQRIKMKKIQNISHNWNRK

AUC(0-t) at 24 h [1]: 1090 ng·h/mL
IC50 [2]: 10.7 µM
Selectivity ratio (Homo sapiens): > 250
inhibition [3]: 39%
inhibition [4]: 36%
inhibition [5]: 2%
inhibition [6]: 2%
inhibition [7]: 2%
inhibition [8]: 13%
remaining at 60 min, 5 µM [9]: 42.2%
microsomal CLint at 5 µM [10]: 52.8 µL/min/mg
C0 at 24 h [11]: 5060 ng/mL
%AUCextra [12]: 6.23%
Vd [13]: 4.46 L/kg
clearance [14]: 143 mL/min/kg
Compound: C=CCn1cc(-c2nc3ccccc3nc2Cl)c2cc(OC)ccc21
inhibition (Danio rerio [15]): inactive
inhibition (Rattus norvegicus [16]): Active
Activity (Rattus norvegicus [17]): Active
inhibition (Rattus norvegicus [18]): Active
Activity [19]: Non-Toxic
inhibition (Rattus norvegicus [20]): Active
inhibition (Rattus norvegicus [21]): Active
Activity [22]: Non-Toxic
Activity [23]: Non-Toxic
NOAEL [24]: 30 µM
Activity [25]: Non-Toxic
Activity [26]: Toxic
Activity [27]: Non-Toxic
Activity [28]: Non-Toxic
Activity [29]: Non-Toxic
Activity [30]: Toxic
Activity [31]: Non-Toxic
Activity [32]: Toxic
Activity [33]: Non-Toxic
Activity (Danio rerio [34]): Active
inhibition (Rattus norvegicus [35]): Active
